Assays:
Fisher 344 rats [1] = test: EEG signals by telemetry from implanted electrodes in freely moving rats, Example 1; format: in vivo; conditions: first hour; all brain areas; p<0.01 relative to pre-drug baseline for the reference drugs; Rimonabant 5 mg/kg, Methylphenidate 1.0 mg/kg, Selegiline 1.5 mg/kg; FIG. 1
From the text: Fisher 344 rats (11 months of age and day-night converted, weight about 350-400 g, provided by Charles River Laboratories, D-97633, Sulzfeld) were used in a series of experiments on the effects of various herbal and pharmaceutical products on central nervous system activity. Products were provided to the test subjects orally (gavage).
The substances tested in this study included: • A control vehicle (0.9% NaCl); • Cyperus esculentus tuberous rhizome, ethanol extract, administered in an amount of 200 mg/kg to 7 rats; • Mango leaf, ethanol extract, administered in an amount of 50 mg/kg to 7 rats; • Cyperus Esculentus tuberous rhizome peel, ethanol extract, 150 mg/kg, plus Mango leaf extract, containing 60% of Mangiferin, 50 mg/kg, administered to 5 rats • Selegiline, administered in amount of 1.5 mg/kg to 8 rats • Methylphenidate administered in an amount of 1.0 mg/kg to 8 rats • Rimonabant administered in amount of 5 mg/kg to 6 rats
EEG signals were recorded by telemetry from 4 implanted electrodes in the frontal cortex, hippocampus and striatum of freely moving rats from inside a totally copper shielded room. Signals were collected in sweeps of 4-second duration and Fast Fourier transformed using a Hanning window. EEG signals were recorded over a period starting 5 minutes after administration of the test substances, and ending 65 minutes after administration of the test substances. Sampling frequency was 512 Hz. […] In an off-line procedure, the spectra were averaged to give longer periods for further analysis and data presentation. Spectral activity within the frontal cortex, hippocampus, striatum and reticular formation was recorded.

Fisher 344 rats [2] = test: EEG signals by telemetry from implanted electrodes in freely moving rats, first hour and fifth hour, Example 2; format: in vivo; conditions: first hour after administration and 5 hours after administration
Experimental: Products were provided to the test subjects orally (gavage).
EEG signals were recorded by telemetry from 4 implanted electrodes in the frontal cortex, hippocampus and striatum of freely moving rats from inside a totally copper shielded room.

Row | SMILES | effect on alpha-2 waves (Fisher 344 rats [1]) | impact on alpha-1 brain wave activity in the hippocampus (Fisher 344 rats [2])
1 | COC(=O)C(c1ccccc1)C1CCCCN1 (stereo not shown) [Methylphenidate] | main significant effect | 
2 | Cc1c(C(=O)NN2CCCCC2)nn(-c2ccc(Cl)cc2Cl)c1-c1ccc(Cl)cc1 [Rimonabant] | main significant effect | 
3 | C#CCN(C)[C@H](C)Cc1ccccc1 [Selegiline] | main significant effect | 
4 | O=c1c2cc(O)c(O)cc2oc2cc(O)c([C@@H]3O[C@H](CO)[C@@H](O)[C@H](O)[C@H]3O)c(O)c12 [pure Mangiferin, Mangiferin] |  | Neither Tigernut extract nor Mango leaf extract (60% Mangiferin) or pure Mangiferin administered alone showed a significant decrease of alpha-1 brain wave activity

From patent publication US11141450B2, “Compositions for reducing appetite and craving, increasing satiety, enhancing mood, and reducing stress” (NEKTIUM PHARMA, S.L., priority 2017, dated 2021)
